{"source": "patent US11840525B2", "about": "“Use of AURKB small-molecule inhibitors for treatment of non-small cell lung cancer” (Nanjing China-Australia Institute of Translational Medicine …, priority 2016, dated 2023)", "key": {"[1]": {"biological_target": "AURKB (Homo sapiens, UniProt Q96GD4)", "sequence (Q96GD4 1-345 isoform Q96GD4-5)": "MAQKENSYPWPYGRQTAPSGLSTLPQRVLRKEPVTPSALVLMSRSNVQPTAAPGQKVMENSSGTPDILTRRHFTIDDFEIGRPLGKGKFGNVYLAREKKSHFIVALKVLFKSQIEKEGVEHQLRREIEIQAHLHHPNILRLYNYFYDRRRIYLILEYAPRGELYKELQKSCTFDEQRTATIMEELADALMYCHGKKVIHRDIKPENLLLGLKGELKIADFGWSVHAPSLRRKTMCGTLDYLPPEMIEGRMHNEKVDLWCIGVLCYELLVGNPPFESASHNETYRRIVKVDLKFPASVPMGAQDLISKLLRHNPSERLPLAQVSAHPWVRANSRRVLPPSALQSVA", "assay": "Microscale thermophoresis (MST) binding to AURKB protein", "set-up": "made in house; host or cells: E. coli BL21", "settings": "prokaryotically expressed GST-AURKB, read-out: dissociation constant of binding to AURKB protein", "experimental": "Thus, it is speculated that the treatment affected the activity of a kinase which was able to phosphorylate the H3S10. The following procedures were conducted to verify whether TZ47 inhibited the activity of AURKB directly. First, prokaryotic expression of AURKB protein and purification were performed and then a microscale thermophoresis (MST) was used to detect the binding between TZ47 and AURKB protein by testing the change of microscale thermophoresis caused by the hydrated layer (generally derived from the change of the structure/conformation of biomolecules) based on the directional movement of particles in a microscopic temperature gradient. […] Flag-tagged AURKB protein was then enriched by M2-flag beads (anti-Flag antibody conjugated) from the lysed liquid of 293T cells and used in the in-vitro kinase activity analysis. It can be seen from FIGS. 6A-6B that the Flag-AURKB protein had kinase activity and can phosphorylate histone H3.\nThe cDNA of 293T cells of human was used as the template to amplify the AURKB CDS sequence in the presence of LATaq enzyme. […]\n1 mL of the eluent was added to the EP tube containing GST beads, rotated at 4° C. for 30 min and centrifuged at 3,000 rpm for 3 min. […] An appropriate amount of the combined supernatant was subjected to SDS-PAGE for the determination of elution efficiency and protein purity and quantity. • b. […]"}, "[2]": {"system": "A549 cells", "assay": "Transwell cell migration test", "type": "cell-based", "settings": "2 μM, 12 h", "experimental": "In addition, Transwell test was also conducted to determine the effect of the expression level of AURKB on the cell migration ability. Similarly, TZ47 (2 μM) was used to treat cells in the Transwell test. […] At the same time, compared to the control scr cells, AURKB-kd cells can partially antagonize the inhibitory effect of TZ47 on cell migration (FIGS. 10A-10B). […] The specific steps were described as follows. • a. Cell migration test • 1) The cells to be tested in the logarithmic growth phase was digested with trypsin and centrifuged to collect the cells. Then the cells were washed once with PBS and resuspended with serum-free DMEM for counting. • 2) 500 μl, of DMEM medium containing 10% FBS was added to a 24-well plate and a Transwell chamber was carefully placed into the plate to prevent air bubbles. Then 100 μL of cell suspension (about 50,000 cells) was added to the Transwell chamber, and a TZ47 solution (final concentration: 2 μM) was simultaneously added to the TZ47 treatment group. The 24-well plate was incubated at 37° C. and 5% CO2 in a cell incubator for 12 h. • 3) The Transwell chamber was removed from the plate and washed in PBS to remove the medium. […]"}}}
{"smiles": "c1ccc2c(Cc3[nH]c4ccccc4c3Cc3c[nH]c4ccccc34)c[nH]c2c1", "note": "[TZ47]", "values": [{"measurement": "Kd", "setting": "[1]", "result": "135 ± 2", "unit": "nM"}, {"measurement": "migration ability of cells", "setting": "[2]", "result": "significantly showed inhibitory effect"}]}
